Values of other authors as cited in US10576041B2, “Extended relief dosage form” (The Procter & Gamble Company, priority 2016, dated 2020).
Counter-ions that a name gives are not always drawn.

Settings: immediate release; in the human body

SMILES	half-life [h]
COc1ccc2c(c1)[C@]13CCCC[C@@H]1[C@H](C2)N(C)CC3 [dextromethorphan hydrobromide]	3 to 5
CN[C@@H](C)[C@@H](O)c1ccccc1 [pseudoephedrine hydrochloride]	4.3 to 8
